21 compounds from ChEMBL document CHEMBL3758156, “The importance of triazole scaffold in the development of anticonvulsant agents” (Eur J Med Chem, 2016) can be followed below.

For orientation: inhibition in vivo means how much of the control response was suppressed. By ED50 is commonly meant the dose that gives a 50% effect, or the effect in half of the subjects. Broadly, the TD50 is the 50% point of the dose-response relation for the toxic effect studied. Low values mean greater toxicity, high ones lower toxicity.

For data set [1], the system named is Mus musculus. The experiment in a line: Anticonvulsant activity in mouse assessed as protection against maximal electroshock-induced seizures at 50 and 100 mg/kg by MES test. In kind it is functional. On the technique in general: The maximal electroshock test induces tonic seizures with an electrical stimulus.
The nature of data set [2]: Protective index, ratio of TD50 for neurotoxicity in ip dosed Swiss mouse to ED50 for anticonvulsant activity in ip dosed Swiss mouse. Format: toxicity, organism-based. The settings on record: in vivo, read-out: Ratio TD50/ED50.
The subject of data set [3] is Mus musculus. As to the kind of experiment: Anticonvulsant activity in lithium-pilocarpine NMRI mouse model assessed as inhibition of pilocarpine-induced seizures at 10 mg/kg, ip administered 30 mins prior to pilocarpine injection measured for 60 mins. Format: functional.
The subject of data set [4] is Mus musculus. As to the kind of experiment: Anticonvulsant activity in po dosed CD1 mouse assessed as protection against strychnine-induced seizures administered 0.5 hr prior to strychnine challenge. Format: functional.
In data set [5] the test system is Mus musculus. The experiment in a line: Anticonvulsant activity in ip dosed Swiss mouse assessed as protection against PTZ-induced seizures administered 30 mins prior to PTZ challenge. In kind it is functional.
The test system of data set [6] is Mus musculus. As to the kind of experiment: Anticonvulsant activity in ip dosed NMRI mouse assessed as protection against PTZ-induced seizures administered 30 mins prior to PTZ injection measured after 30 mins. In kind it is functional.
Data set [7] is described as follows: Protective index, ratio of TD50 for neurotoxicity in ip dosed Kunming mouse to ED50 for anticonvulsant activity in ip dosed Kunming mouse. In kind it is toxicity, organism-based. Particulars: in vivo, read-out: PI.
Data set [8] deals with Mus musculus. As to the kind of experiment: Anticonvulsant activity in ip dosed Kunming mouse assessed as protection against maximal electroshock-induced seizures after 30 mins by MES test. Format: functional. Particulars: 0.5 h.
Data set [9] concerns Mus musculus. The experiment in a line: Anticonvulsant activity in ip dosed C57BL/6 mouse assessed as protection against maximal electroshock-induced seizures measured at 30 mins interval over 4 hrs by MES test. Format: functional. The settings on record: C57B/6, ip.
Data set [10] can be described thus: Protective index, ratio of TD50 for neurotoxicity in ip dosed C57BL/6 mouse to ED50 for anticonvulsant activity in ip dosed C57BL/6 mouse. The settings on record: in vivo. In kind it is toxicity, organism-based, C57B/6.
Data set [11] concerns Mus musculus. As to the kind of experiment: Anticonvulsant activity in ip dosed Kunming mouse assessed as protection against maximal electroshock-induced seizures […]. Format: functional.
Data set [12] deals with Mus musculus. The experiment in a line: Anticonvulsant activity in ip dosed C57BL/6 mouse assessed as protection against maximal electroshock-induced seizures measured at 5 secs intervals over 4 hrs by MES test. Format: functional. The settings on record: C57B/6, ip.
Data set [13] deals with Mus musculus. As to the kind of experiment: Anticonvulsant activity in ip dosed Swiss mouse assessed as protection against maximal electroshock-induced seizures administered 30 mins prior to electrical stimulation by MES test. In kind it is functional.
A short description of data set [14]: Protective index, ratio of TD50 for neurotoxicity in ip dosed Swiss mouse by rotarod test to ED50 for anticonvulsant activity in ip dosed Swiss mouse by MES test. Format: toxicity, organism-based. The settings on record: in vivo, read-out: Ratio TD50/ED50.
Data set [15] can be described thus: Neurotoxicity in ip dosed C57BL/6 mouse after 30 mins by rotarod test. In kind it is toxicity, organism-based, C57B/6. The settings on record: in vivo.
Data set [16] relates to Mus musculus. As to the kind of experiment: Anticonvulsant activity in albino Swiss mouse assessed as protection against PTZ-induced seizures at 100 mg/kg, ip administered 2 hrs prior to PTZ injection measured after 60 mins. In kind it is functional.
The test system of data set [17] is Mus musculus. As to the kind of experiment: Anticonvulsant activity in BALB/c mouse assessed as protection against maximal electroshock-induced seizures at 30 mg/kg, po after 1 hr by MES test. Format: functional.
Data set [18] in a line: Neurotoxicity in ip dosed Kunming mouse after 15 mins by rotarod test. Particulars: in vivo. Format: toxicity, organism-based. (In general: In the rotarod test animals must keep their balance on a rotating rod.)
Data set [19] deals with Mus musculus. As to the kind of experiment: Anticonvulsant activity in NMRI mouse assessed as protection against PTZ-induced seizures at 100 mg/kg, ip administered 30 mins prior to PTZ injection measured for 30 mins. In kind it is functional.
Data set [20] deals with Mus musculus. The experiment in a line: Anticonvulsant activity in NMRI mouse assessed as protection against maximal electroshock-induced seizures at 100 mg/kg, ip by MES test. Format: functional.
Data set [21] deals with Mus musculus. The experiment in a line: Anticonvulsant activity in ip dosed Swiss mouse assessed as protection against strychnine-induced tonic extensor after 30 mins. In kind it is functional. Particulars: 0.5 h.

Take `CCn1c(S)nnc1-c1sc(-c2ccccc2)nc1C`: the Activity in data set [1] stood at 80%.
Regarding `Fc1ccc(-n2c(-c3cccc(Cl)c3)n[nH]c2=S)cc1`, the selectivity ratio in [2] amounted to 3.9.
Take `O=C1c2ccccc2OCC1n1cncn1` (stereo unspecified): the inhibition in vivo at 10 mg/kg in data set [3] is 49%.
As to `Cn1c(-c2ccccc2)nnc1S(C)(=O)=O`, the ED50 in data set [4] worked out at 7.3 mg/kg; in data set [5], 55 mg/kg.
Take `Nc1nnc(-c2ccc(Cl)cc2Oc2ccccc2F)[nH]1`: the 50% effective dose (ED50) in [6] amounted to 1.4 mg/kg.
Consider `CCCCCCCOc1nncn1-c1ccc(OCCCCCC)cc1`, for which the selectivity ratio in [7] came out at 11.3. Further, the median effective dose (ED50) in [8] was found to be 37.3 mg/kg.
With `Nc1nnc(-c2ccc(Cl)cc2Oc2ccccc2Cl)[nH]1`, the ED50 in data set [6] was determined as 12 mg/kg.
Regarding `CCCCCCOc1ccc2c(c1)c(-c1ccccc1)cc1nncn12`, the 50% effective dose (ED50) in data set [9] came out at 6.5 mg/kg. In data set [10] (read-out: PI), the selectivity ratio came to 35.1.
As for `Clc1ccc(C2=Nn3cnnc3SC2)cc1`, the selectivity ratio in [7] came out at 6.5. Further, the 50% effective dose (ED50) in data set [11] came to 40.9 mg/kg.
Take `Fc1cccc(C2Cc3nncn3-c3ccccc32)c1` (stereo unspecified): the figures for the ED50 in data set [9] and in data set [12] were 27.4 mg/kg and 22 mg/kg, respectively. Also, the selectivity ratio in data set [10] (read-out: PI) was found to be 3.33.
Turning to `CCCCCCCOc1nn2cnnc2c2ccccc12`, the ED50 in [13] was determined as 11 mg/kg. In addition, the selectivity ratio in [14] was determined as 8.
Turning to `Clc1ccc(Oc2nn3cnnc3c3ccccc23)cc1`, in [13], the median effective dose (ED50) came to 7.1 mg/kg. The selectivity ratio in data set [14] is 5.2.
On to `Clc1ccc(-c2nn3cnnc3s2)cc1`, for which the selectivity ratio in data set [7] was 10.8. Further, the ED50 in [11] stood at 23.7 mg/kg.
Turning to `CCCCCCCOc1cc(-c2ccccc2)nc2ncnn12`, the ED50 in data set [11] was found to be 84.9 mg/kg.
Regarding `CCCCCCCOc1ccc2c(c1)CCc1nn(C(=O)CC)c(=O)n1-2`, the 50% effective dose (ED50) in data set [9] worked out at 8.2 mg/kg. In addition, the selectivity ratio in data set [10] (read-out: Ratio TD50/ED50) was 39. For the same compound, in data set [15], the TD50 at 0.5 h came to 318 mg/kg.
As for `CC1=NNC(=O)/C1=N\Nc1ccc(-c2n[nH]c(=O)n2-c2ccccc2)cc1`, the Activity in [16] is on record as 30%.
On the same count and under the same terms, as for `CC1=NNC(=O)/C1=N\Nc1ccc(-c2n[nH]c(=S)n2-c2ccccc2)cc1`, the figure is 30%.
Turning to `Cn1c(SCc2ccccc2)nnc1-c1ccc(N)cc1`, the Activity in data set [17] worked out at 50%.
In data set [18], `Fc1ccccc1COc1ccc2c(c1)SCc1nncn1-2` showed a TD50 at 0.25 h of 244 mg/kg. In addition, the ED50 in [8] was 17 mg/kg.
On to `Clc1ccc(-c2nc(Cn3cncn3)cs2)cc1`, for which the Activity in data set [19] and in data set [20] was 100% throughout.
Turning to `Cc1nn2c(C(N)=O)nnc2cc1Cc1c(Cl)cccc1Cl`, the ED50 is 62.9 mg/kg in data set [21], 12.5 mg/kg in [13] and 91.1 mg/kg in data set [5].
